Measurements published in patent publication US20120041030A1, “PYRIDINE THIO DERIVATIVE, AND PHARMACEUTICAL COMPOSITION WHICH CONTAINS SAME AND HAS ANTI-HELICOBACTER PYLORI ACTION” (priority 2009, published 2012).
Values after ≈ are worked out from the molar mass of the structure shown. Where two headings read alike, the source gives them in different places.

Columns and labels:
Type in all cases: cell-based
[1] = tested on: Streptococcus pneumonia (ATCC 6301); test: Antibacterial test (MIC), comparison bacteria; conditions: for MIC: Streptococcus pneumoniae, ATCC6301, Gram positive, read-out: minimum inhibitory concentration (MIC)
Method: (§1) ATCC43504 which was a standard bacterial strain was used as Helicobacter pylori (H. pylori) to perform the test in vitro in a Columbia agar medium. The bacteria were cultured at 37° C. and a pH of 7.0 for three days. The minimum inhibitory concentration (MIC, μg/ml) was found on the fourth day. Each sample was dissolved in 1% DMSO to use. […] As bacteria for comparison, Gram negative bacteria, for example, E. coli (ATCC 10536 ATCC 25922), Klebsiella pneumonia (ATCC 10031), Proteus vulgaris (ATCC 13315), Pseudomonas aeruginosa (ATCC 9027) and Salmonella typhimurium (ATCC 13311) were used and Gram positive bacteria, for example, Staphylococcus aureus, MRSA (ATCC 33591), Staphylococcus epidermidis (ATCC 12228), Streptococcus pneumonia (ATCC 6301), Mycobacterium ranae (ATCC 110) and Enterococcus faecalis (VRE, ATCC 51575) were used.
(§2) The values in each table show minimum inhibitory concentrations (MIC, μg/ml).

[2] = tested on: Mycobacterium ranae (ATCC 110); test: Antibacterial test (MIC), comparison bacteria; conditions: for MIC: ATCC110, Gram positive, read-out: minimum inhibitory concentration (MIC)
Method: as §1, §2

[3] = tested on: Escherichia coli (ATCC 10536); test: Antibacterial test (MIC), comparison bacteria; conditions: for MIC: ATCC10536, Gram negative, read-out: minimum inhibitory concentration (MIC)
Method: as §1, §2

[4] = tested on: Escherichia coli (ATCC 25922); test: Antibacterial test (MIC), comparison bacteria; conditions: for MIC: ATCC25922, Gram negative, read-out: minimum inhibitory concentration (MIC)
Method: as §1, §2

[5] = tested on: Salmonella typhimurium (ATCC 13311); test: Antibacterial test (MIC), comparison bacteria; conditions: Gram negative; for MIC: Salmonella enterica, read-out: minimum inhibitory concentration (MIC)
Method: as §1, §2

[6] = tested on: Staphylococcus epidermidis (ATCC 12228); test: Antibacterial test (MIC), comparison bacteria; conditions: for MIC: ATCC12228, Gram positive, read-out: minimum inhibitory concentration (MIC)
Method: as §1, §2

[7] = tested on: Staphylococcus aureus (MRSA, ATCC 33591); test: Antibacterial test (MIC), comparison bacteria; conditions: Gram positive; for MIC: read-out: minimum inhibitory concentration (MIC)
Method: as §1, §2

[8] = tested on: Klebsiella pneumonia (ATCC 10031); test: Antibacterial test (MIC), comparison bacteria; conditions: for MIC: Klebsiella pneumoniae, ATCC10031, Gram negative, read-out: minimum inhibitory concentration (MIC)
Method: as §1, §2

[9] = tested on: Enterococcus faecalis (VRE, ATCC 51575); test: Antibacterial test (MIC), comparison bacteria; conditions: Gram positive; for MIC: read-out: minimum inhibitory concentration (MIC)
Method: as §1, §2

[10] = tested on: Proteus vulgaris (ATCC 13315); test: Antibacterial test (MIC), comparison bacteria; conditions: for MIC: ATCC13315, Gram negative, read-out: minimum inhibitory concentration (MIC)
Method: as §1, §2

[11] = tested on: Pseudomonas aeruginosa (ATCC 9027); test: Antibacterial test (MIC), comparison bacteria; conditions: for MIC: ATCC9027, Gram negative, read-out: minimum inhibitory concentration (MIC)
Method: as §1, §2

[12] = tested on: Helicobacter pylori (ATCC 43504); test: Antibacterial test (MIC) against Helicobacter pylori; conditions: for MIC: Helicobacter pylori
Method: as §1, §2

[13] = tested on: Gram negative or Gram positive bacteria; test: Antibacterial test (MIC), comparison bacteria summarised in text; conditions: text summary over the comparison bacteria
Method: ATCC43504 which was a standard bacterial strain was used as Helicobacter pylori (H. pylori) to perform the test in vitro in a Columbia agar medium. The bacteria were cultured at 37° C. and a pH of 7.0 for three days. The minimum inhibitory concentration (MIC, μg/ml) was found on the fourth day. Each sample was dissolved in 1% DMSO to use. As control drugs for the antibacterial agent, ampicillin (AMPC), clarithromycin (CAM), and gentamycin (GEM) were used. As bacteria for comparison, Gram negative bacteria, for example, E. coli (ATCC 10536 ATCC 25922), Klebsiella pneumonia (ATCC 10031), Proteus vulgaris (ATCC 13315), Pseudomonas aeruginosa (ATCC 9027) and Salmonella typhimurium (ATCC 13311) were used and Gram positive bacteria, for example, Staphylococcus aureus, MRSA (ATCC 33591), Staphylococcus epidermidis (ATCC 12228), Streptococcus pneumonia (ATCC 6301), Mycobacterium ranae (ATCC 110) and Enterococcus faecalis (VRE, ATCC 51575) were used.
as §2

[14] = ATCC43504, 72 h, pH 7, Helicobacter pylori ATCC 43504, Columbia agar medium, 37° C., pH 7.0, cultured three days, MIC found on the fourth day, read-out: minimum inhibitory concentration (MIC)

Molecule	MIC [1]	MIC [2]	MIC [3]	MIC [4]	MIC [5]	MIC [6]	MIC [7]	MIC [8]	MIC [9]	MIC [10]	MIC [11]	MIC [12, 14]	other results
CCOCCCOc1ccnc(SCc2nc3ccccc3[nH]2)c1C [Example 11]	> 100 µg/mL	> 100 µg/mL	> 100 µg/mL	> 100 µg/mL	> 100 µg/mL	> 100 µg/mL	> 100 µg/mL	> 100 µg/mL	> 100 µg/mL	> 100 µg/mL	> 100 µg/mL	0.1 µg/mL (≈ 0.28 µM)	
COCCOCCOc1ccnc(SCc2nc3ccccc3[nH]2)c1C.Cl [Example 12, 2-[[[4-[2-(2-methoxyethoxy)-ethoxy]-3-methyl-2-pyridyl]thio]-methyl]-1H-benzimidazole hydrochloride]	> 100 µg/mL	> 100 µg/mL	> 100 µg/mL	> 100 µg/mL	> 100 µg/mL	> 100 µg/mL	> 100 µg/mL	> 100 µg/mL	> 100 µg/mL	> 100 µg/mL	> 100 µg/mL	0.3 µg/mL	
Cc1c(OCCCCCCCCO)ccnc1SCc1nc2ccccc2[nH]1 [Example 13, 2-[[[4-(8-hydroxy-1-octyloxy)-3-methyl-2-pyridyl]thio]-methyl]-1H-benzimidazole]	> 100 µg/mL	> 100 µg/mL	> 100 µg/mL	> 100 µg/mL	> 100 µg/mL	> 100 µg/mL	> 100 µg/mL	> 100 µg/mL	> 100 µg/mL	> 100 µg/mL	> 100 µg/mL		MIC ([12]; summary of Tables 2 and 3): 0.003 µg
Gentamycin [GEM, reference compound]													minimum inhibitory concentration (MIC) ([1]; Gram positive): 100 µg/mL; minimum inhibitory concentration (MIC) ([2]; Gram positive): 0.3 µg/mL; minimum inhibitory concentration (MIC) ([3]; Gram negative): 0.3 µg/mL; minimum inhibitory concentration (MIC) ([4]; Gram negative): 1.0 µg/mL; minimum inhibitory concentration (MIC) [5]: 3.0 µg/mL; minimum inhibitory concentration (MIC) ([6]; Gram positive): 0.1 µg/mL; minimum inhibitory concentration (MIC) [7]: 1.0 µg/mL; minimum inhibitory concentration (MIC) ([8]; Gram negative): 1.0 µg/mL; minimum inhibitory concentration (MIC) [9]: 100 µg/mL; minimum inhibitory concentration (MIC) ([10]; Gram negative): 0.3 µg/mL; minimum inhibitory concentration (MIC) ([11]; Gram negative): 1.0 µg/mL; MIC against Gram negative or Gram positive bacteria [13]: 0.1 to 1.0 µg/mL; minimum inhibitory concentration (MIC) ([12]; Helicobacter pylori ATCC 43504, Columbia agar medium, 37° C., pH 7.0, cultured three days, MIC found on the fourth day): 0.3 µg/mL; MIC against Helicobacter pylori ([12]; control drug): 0.3 µg/mL
